Some results are limits rather than exact numbers.

The subject of the first assay is JAK1/TYK2 pSTAT5 (Tyr694/699) in THP-1 cell line. The experiment in a line: IFNa-stimulated JAK1/TYK2 pSTAT5 (Tyr694/699) inhibition cellular assay, AlphaLISA. The class given is cell-based. The settings on record: Homo sapiens; THP-1 cells, IFNa-stimulated, AlphaLISA (Assay B); read-out: Cellular THP1_IFNa-pSTATS_IC50. The protocol: Assay B: JAK1/TYK2 pSTAT5 (Tyr694/699) inhibition IC50 Cellular Assays
To evaluate the inhibition effect of compounds disclosed herein against TYK2, an IFNa-stimulated JAE1/TYK2 pSTAT5 (Tyr694/699) quantification assay was conducted in the THP-1 cell line using an AlphaLISA detection method (PerkinElmer ALSU-PST5). Compounds in DMSO were serially diluted in a 96-well plate (10 mM starting concentration, 6-fold dilutions, 8 concentrations total) prior to dispensing of 8 nL into a 384-well plate using an I.DOT non-contact liquid handler (Dispendix). Cells were collected via centrifugation at 300 ref for 5 min and resuspended in Hanks' Balanced Salt Solution (Gibco 14175-079), and 6 μl containing 2e4 cells was dispensed into each well of the 384-well plate containing test compounds or DMSO alone (final concentrations: 10000, 1666.67, 277.78, 46.30, 7.72, 1.29, 0.21 and 0.04 nM). Cells were then incubated for 1 h at 37° C. with 5% CO2 prior to the addition of 2 μL IFNa (100 ng/mL; PBL Assay Science 11175-1). Following an additional 30 min incubation at 37° C. with 5% CO2, 2 μL of 5× lysis buffer was added to each well using the I.DOT […]. Plates were sealed and incubated at RT for 10 min on a plate shaker set to 400 RPM. Cell lysates were then frozen at −80° C. before subsequent detection of pSTAT5 by AlphaLISA. At the time of the detection assay, cell lysates were thawed for 5 min at room temperature and then on a plate shaker set to 400 RPM for an additional 10 min. Following the manufacturer recommended protocol (Perkin Elmer), 5 μL of acceptor bead master mix was added to each well; plates were then resealed and incubated for 2 min at RT on a plate shaker (400 rpm) prior to an additional 2-h incubation without agitation (protected from light). Donor bead master mix, 5 uL per well, was then added to each well before 2 min of shaking (RT, 400 rpm) and 2-h incubation (RT, no shaking, protected from light). Levels of pSTAT5 protein were then measured as fluorescent signal at 615 nm with an EnVision multimode plate reader (Perkin Elmer). IC50 values were calculated in Dotmatics using the four-parameter logistic curve regression model with bottom fixed to 0 and Hill Slope fixed to −1.
Regarding `CNc1ncc(/C=C/c2ccccc2OC)c2cc(NC(=O)C3CC3)ncc12` [Example 174, (E)-N-(5-(2-methoxystyryl)-8-(methylamino)-2,7-naphthyridin-3-yl)cyclopropanecarboxamide], the IC50 is at most 500 nM.

The assay is the same for the next values; noted with them: Homo sapiens; THP-1 cells, IFNa-stimulated, AlphaLISA (Assay B); read-out: Cellular_THP1_IFNa-pSTATS_TYK2.
In the case of `CNc1ncc(-c2nc3cnc(C(F)F)cc3o2)c2cc(NC(=O)C3CC3)ncc12` [Example 461, N-(5-(6-(difluoromethyl)oxazolo[4,5-c]pyridin-2-yl)-8-(methylamino)-2,7-naphthyridin-3-yl)cyclopropanecarboxamide], the IC50 is at most 500 nM.

`CCNc1ncc(-c2nc3cc(N4CC5CNCC(C4)O5)ccc3o2)c2cc(NC(=O)C3CC3)ncc12` [Example 466, N-(5-(5-(9-oxa-3,7-diazabicyclo[3.3.1]nonan-3-yl)benzo[d]oxazol-2-yl)-8-(ethylamino)-2,7-naphthyridin-3-yl)cyclopropanecarboxamide]: the IC50 was at most 500 nM.

For the molecule `CNc1ncc(-c2cc3ccc(N4CCO[C@@H](C)C4)cn3n2)c2cc(NC(=O)C3CC3)ncc12` [Example 797, (S)—N-(8-(methylamino)-5-(6-(2-methylmorpholino)pyrazolo[1,5-a]pyridin-2-yl)-2,7-naphthyridin-3-yl)cyclopropanecarboxamide], the IC50 was at most 500 nM.

On to `CNc1ncc(C#Cc2ccc(C(C)(C)O)cc2)c2cc(NC(=O)C3CC3)ncc12` [Example 802, N-(5-((4-(2-hydroxypropan-2-yl)phenyl)ethynyl)-8-(methylamino)-2,7-naphthyridin-3-yl)cyclopropanecarboxamide], for which the IC50 was at most 500 nM.

Regarding `CNc1ncc(C#Cc2ccc3c(c2)CC(=O)N3C)c2cc(NC(=O)C3CC3)ncc12` [Example 803, N-(5-((1-methyl-2-oxoindolin-5-yl)ethynyl)-8-(methylamino)-2,7-naphthyridin-3-yl)cyclopropanecarboxamide], the IC50 is at most 500 nM.

As to `CNc1ncc(C#Cc2ccc3nc(CF)n(C)c3c2)c2cc(NC(=O)C3CC3)ncc12` [Example 810, N-(5-((2-(fluoromethyl)-1-methyl-1H-benzo[d]imidazol-6-yl)ethynyl)-8-(methylamino)-2,7-naphthyridin-3-yl)cyclopropanecarboxamide], the IC50 is at most 500 nM.

As to `CNc1ncc(C#Cc2ccc(CN3CCO[C@@H](C)C3)cc2)c2cc(NC(=O)C3CC3)ncc12` [Example 814, (S)—N-(8-(methylamino)-5-((4-((2-methylmorpholino)methyl)phenyl)ethynyl)-2,7-naphthyridin-3-yl)cyclopropanecarboxamide], the IC50 was at most 500 nM.

As to `CNc1ncc(-c2nc3cc(N4CCO[C@@H](C)C4)ccc3o2)c2cc(NC(=O)[C@H]3C[C@H]3C)nnc12` [Example 891, (1S,2R)-2-methyl-N-(8-(methylamino)-5-(5-((S)-2-methylmorpholino)benzo[d]oxazol-2-yl)pyrido[3,4-c]pyridazin-3-yl)cyclopropane-1-carboxamide], the IC50 is at most 500 nM.

For `CNc1ncc(-c2nc3ccc(N4CCOCC4)cn3n2)c2cc(Nc3ccccn3)nnc12` [Example 892, N^8-methyl-5-(6-morpholino-[1,2,4]triazolo[1,5-a]pyridin-2-yl)-N^3-(pyridin-2-yl)pyrido[3,4-c]pyridazine-3,8-diamine], the IC50 was at most 500 nM.

For `CNc1ncc(C#Cc2ccc(CN3CCC3)cn2)c2cc(NC(=O)C3CC3)ncc12` [Example 905, N-(5-((5-(azetidin-1-ylmethyl)pyridin-2-yl)ethynyl)-8-(methylamino)-2,7-naphthyridin-3-yl)cyclopropanecarboxamide], the IC50 is at most 500 nM.

`CNc1ncc(C#Cc2ccc(CN3CC(F)(F)C3)cn2)c2cc(NC(=O)C3CC3)ncc12` [Example 906, N-(5-((5-((3,3-difluoroazetidin-1-yl)methyl)pyridin-2-yl)ethynyl)-8-(methylamino)-2,7-naphthyridin-3-yl)cyclopropanecarboxamide]: the IC50 is at most 500 nM.

The assay is the same for the next values; noted with them: THP-1 cells, IFNa-stimulated, AlphaLISA (Assay B); read-out: Cellular_THP1_IFNa-pSTATS_TYK2.
Turning to `CNc1ncc(-c2nc3cc(-c4ncnn4C)ccc3o2)c2cc(NC(=O)C3CC3)ncc12` [Example 465], the IC50 was at most 500 nM.

(Values after US20240025906A1 (NEURON23, INC., priority 2022, published 2024).)
